Data taken from US20200270310A1, “MAFG AS A POTENTIAL THERAPEUTIC TARGET TO RESTORE CHEMOSENSITIVITY IN PLATINUM-RESISTANT CANCER CELLS” (FUNDACÓIN PARA LA INVESTIGACIÓN BIOMÉDICA DEL HOSPITAL …, priority 2017, published 2020).

B1: GCGGATGAAGACTGGTGTCGATGCATGTGTAGTGCATTTCGAGCCGTTCTATTGGTGTGCCCTAAATACGAGCAAC (nucleic acid)
chain: GCGGATGAAGACTGGTGTCGATGCATGTGTAGTGCATTTCGAGCCGTTCTATTGGTGTGCCCTAAATACGAGCAAC
modifications: chemistry not given here
notes: DNA aptamer selected against the MAFG protein by SELEX

Key:
NRF2 = test: Semiquantitative RT-PCR expression after cisplatin treatment; assay type: cell-based, human
Method: For semiquantitative RT-PCR, 500 ng of total RNA isolated from cell lines was used for RT reaction using PrimeScript™ RT Master (Clontech-Takara, USA) and subsequent semiquantitative PCR using Promega PCR Mix (Promega, USA) as previously described. Relative quantification was performed by measuring the intensity of band amplified using ImageJ software. Primers for HMOX1 (F: 5′-[…]-3′; R: 5′-[…]-3′), MAFG (F: 5′-[…]-3′; R: 5′-[…]-3′) and GAPDH (F: 5′-GAGAGACCCTCACTGCTG-3′; R: 5′-[…]-3′) were designed to include the probe from the array in order to assure the correct transcript identification.

[1] = system: A2780 ovarian cancer cells; test: ROS production after CDDP exposure, ovarian cells; assay type: cell-based, human
Method: (§1) FIG. 3. Viability assays and Reactive Oxygenated Species detection after CDDP treatment in A2780 cell lines. (A) Viability to CDDP in A2780S (left) and A2780R (right) at 24, 48 and 72 hours and 6 concentrations of CDDP measured by MTT assay. (B) Increment of ROS production in A2780S (left) and A2780R (right) after 24, 48 and 72 hours of CDDP treatment. $: 72h (vs Basal).
(§2) H23/A2780 cells were cultured in 96-well black plates at density of 10,000 cells/well. Cells were treated with 6 different doses of CDDP for 24, 48 and 72 h in RPMI containing 10% FBS. Then treatments were removed and cells were loaded with the fluorescent probe 2′,7′-dichlorodihydrofluorescein diacetate (H2DCFDA) (10 μM) for 45 minutes in RPMI medium (FBS free). Cells were washed twice with RPMI (10% FBS), and fluorescence was recorded in a Fluostar Optima, each hour, over 4 hours period. […] ROS production was calculated dividing the mean H2DCFDA fluorescence by the mean viability. […] All experiments included cells treated with RPMI alone (Basal), and one well without cells as fluorescence basal.
(§3) H23/A2780 cells were cultured in 96-well black plates at density of 10,000 cells/well. […] Cells were washed twice with RPMI (10% FBS), and fluorescence was recorded in a Fluostar Optima at 520 nm after excitation at 485 nm. […] ROS production was calculated dividing the mean H2DCFDA fluorescence by the mean viability. […]

H23S cells = test: ROS production after CDDP exposure, sensitive cells; assay type: cell-based, human
Method: as §1, with “2.” for “3.”, “H23” for “A2780”, “H23S” for “A2780S”, “H23R” for “A2780R”
as §2, §3

MAFG = test: Determination of the MAFG amino acids with which the aptamer binds; conditions: aligned with peptides M4 and M5
Source text: FIG. 11. Amino acids of MAFG with which apMNK6F binds (see chA and chB). Interaction zones of apMNK6F aligned with peptides M4 and M5
Moreover, we determined the precise amino acids of MAFG with which apMNK6F binds (see chA and chB of FIG. 11). […] More precisely, the interaction occurs with amino acids 57ARG, 60LYS, 61ASN, 62ARG, 63GLY, 64TYR, 65ALA, 66ALA, 67SER, 68CYS, 69ARG, 70VAL, 71LYS, and 75GLN of the epitope of MAFG comprising amino acids 57 to 75 RTLKNRGYAASCRVKRVTQ (amino acids 57 to 75).

[2] = system: H23S cells overexpressing MAFG; test: CDDP sensitivity of MAFG-overexpressing cells combined with aptamer; assay type: cell-based, human
Method: HEK293 and H23S/R cells were seeded into 96-well plates then transfected with 5, 12.5, 25, 75 and 100 nM of MAFG aptamers or treated with PBS-Mg using Jet Pei PolyPlus transfection reagent (PolyPlus Transfection, USA). The dose of 25 nM aptamer was afterwards used in combination with increased doses of CDDP to assay viability and ROS production as described above. To confirm the aptamer-transfection efficiency cells were seeded in 24-well plates for aptamer isolation and confirmation of aptamer transfection by quantitative analysis. A Myc-DDK-tagged ORF clone of MAFG the negative control pCMV6 were used for in transient transfection (OriGene, USA) in combination with MAFG-aptamers following the same procedure.

[3] = biological target: T1, MAFG in tumor samples of patients with lung cancer (Homo sapiens, UniProt O15525); test: Aptahistochemistry in NSCLC tumor samples; conditions: 20 tumor samples classified by MAFG mRNA levels
T1 construct: from tissue; host or cells: Formalin-fixed paraffin-embedded NSCLC tumour sections
T1 sequence (O15525 whole entry): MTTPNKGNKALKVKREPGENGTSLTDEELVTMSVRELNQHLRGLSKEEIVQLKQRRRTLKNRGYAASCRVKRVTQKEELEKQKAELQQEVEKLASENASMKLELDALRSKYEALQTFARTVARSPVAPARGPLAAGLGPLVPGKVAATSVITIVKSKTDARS
Method: The formalin-fixed and paraffin-embedded tissue sections of patients with lung cancer were baked 15 minutes at 60° C. Deparaffinization was performed by two washes of xylene for 10 minutes each. Tissue sections were rehydrated by a sequential wash in 100%, 90%, 80%, 70% ethanol and distilled water for 5 minutes each. Antigen retrieval was achieved by heat treatment in a pressure cooker for 2 minutes in 10 mM citrate buffer (pH 6.5). Endogenous peroxidase activity of tissues was blocked with 0.3% […]. The primary binding reaction was performed with 10 pmol/ml of digoxigenin-conjugated aptamers overnight at room temperature. The secondary binding reaction was performed with anti-digoxigenin conjugated with POD (Roche; 1/200 dilution in TBS) for 45 minutes. Staining was done using the Immunoperoxidase DAB kit (Master Diagnostica), according to the manufacturer's instructions. The sections were counterstained with hematoxylin.
We then took advantage of the aptacytochemistry to perform an aptamer-based histochemistry in 20 tumor samples from our cohort of patients with known mRNA levels of MAFG. […] To determine the correlation between the aptahistochemistry and the mRNA levels of MAFG, we calculated the percentage of cells with positive staining from the total number of cells computed at four different areas randomly selected for each sample.

| Molecule | NRF2 expression after cisplatin treatment (NRF2) | differences in ROS production between sensitive and resistant cells [1] | ROS production versus basal untreated cells (H23S cells; 3.00 μg/ml CDDP) | ROS after treatment with the drug (H23S cells; Example 1) | interaction zone of the aptamer on MAFG (MAFG) | CDDP sensitivity of MAFG-overexpressing cells with aptamer [2] | percentage of positive cells in samples with higher MAFG levels [3] |
| --- | --- | --- | --- | --- | --- | --- | --- |
| [NH2][Pt]([NH2])([Cl])[Cl] [CDDP, Cisplatin] | did not changed | confirmed | 300% | increased | – | – | – |
| B1 | – | – | – | – | interaction occurs mainly with peptide M4 | rescued the phenotype and re-sensitized the cells | significant increment in the percentage of positive cells |
